The test system of test [1] is Enterobacter cloacae GN 5797. The test is described as follows: Induction of β-lactamase by β-lactam antibiotics. The format is cell-based. The following applies: induced β-lactamase activity of crude enzyme; Concentration 10 µg/ml; Incubation time 3 hr; Substrate: 100 µM of cephaloridine. As for the experimental part: The assay method for induction of β-lactamase by β-latam antibiotics was as follows: The test organism, Enterobacter cloacae GN 5797, was grown overnight in Mueller Hinton broth (Dlfco Laboratories, Detroit, Mich.) at 37°C. The culture was diluted l0-fold into 20 ml of the flesh medium and incubated with shaking at 37°C. After 2 hours of incubation, antibiotics were added to final concentrations of 50 µg/ml, l0 µg/ml and l µg/ml, and the incubation was continued. At l hour intervals after the addition of antibiotic, 5 ml of sample was taken, and immediately added with 0.l ml of 50 mM sodium azide. The cells were harvested and washed with 50 mM phosphate buffer (pH 7.0). The cells were suspended in 5 ml of 50 mM phosphate buffer and disrupted with a sonicater in an ice-water bath. The broken cells were centrifuged at l6,500 G for 40 minutes at 4°C, and the resulting supernatant fluid was used as the crude enzyme. β-Lactamase activity was determined by a spectrophotometric method (Antmicrob. Agents Chemother. 17, 355-358, 1980) with cephaloridine as substrate. The concentration of protein was determined by the method of Lowry (J. Biol. Chem. 193, 265-275, 1951).

In test [2] the test system is A.calcoaceticus No. 4. The test is described as follows: In vitro antibacterial activity, agar plate dilution method (MIC). The format is cell-based. The following applies: Acinetobacter calcoaceticus; A.calcoaceticus No. 4; Mueller Hinton agar, inoculum 10⁶ CFU/ml, 37°C, 16 hours; read-out: Minimum Inhibitory Concentration (MIC: µg/ml).
Test [3] relates to C.freundii GN346/16. The description is as above. The test is classed as cell-based. The following applies: Citrobacter freundii; C.freundii GN346/16; Mueller Hinton agar, inoculum 10⁶ CFU/ml, 37°C, 16 hours; read-out: Minimum Inhibitory Concentration (MIC: µg/ml).
Test [4] relates to C.freundii GN346. The test is described as above. The format is cell-based. The following applies: Citrobacter freundii; C.freundii GN346 (β-Lactamase-producing strain); Mueller Hinton agar, inoculum 10⁶ CFU/ml, 37°C, 16 hours; read-out: Minimum Inhibitory Concentration (MIC: µg/ml).
For test [5], the system named is E.cloacae 963. Described as above. The format is cell-based. The following applies: Enterobacter cloacae; E.cloacae 963; Mueller Hinton agar, inoculum 10⁶ CFU/ml, 37°C, 16 hours; read-out: Minimum Inhibitory Concentration (MIC: µg/ml).
Test [6] deals with E.cloacae Nek 39. Described as above. The test is classed as cell-based. The following applies: Enterobacter cloacae, NEK39; E.cloacae Nek 39 (β-Lactamase-producing strain); Mueller Hinton agar, inoculum 10⁶ CFU/ml, 37°C, 16 hours; read-out: Minimum Inhibitory Concentration (MIC: µg/ml).
Test [7] concerns E.coli CSH(RE45). The test is described as above. The format is cell-based. The following applies: Escherichia coli, 16 h, read-out: Minimum Inhibitory Concentration (MIC: µg/ml).
The subject of test [8] is E.coli CSH2 (RK1). The test is described as above. The format is cell-based. The following applies: Escherichia coli, 16 h, read-out: Minimum Inhibitory Concentration (MIC: µg/ml).
The test system of test [9] is E.coli GN5482. The test is described as above. The test is classed as cell-based. The following applies: Escherichia coli; E.coli GN5482 (β-Lactamase-producing strain); Mueller Hinton agar, inoculum 10⁶ CFU/ml, 37°C, 16 hours; read-out: Minimum Inhibitory Concentration (MIC: µg/ml).
In test [10] the test system is E.coli NIHJ JC2. The description is as above. The test is classed as cell-based. The following applies: Escherichia coli, NIHJJC2; E.coli NIHJ JC2; Mueller Hinton agar, inoculum 10⁶ CFU/ml, 37°C, 16 hours; read-out: Minimum Inhibitory Concentration (MIC: µg/ml).
Test [11] relates to K.oxytoca GN10650. The description is as above. The test is classed as cell-based. The following applies: Klebsiella oxytoca; K.oxytoca GN10650 (β-Lactamase-producing strain); Mueller Hinton agar, inoculum 10⁶ CFU/ml, 37°C, 16 hours; read-out: Minimum Inhibitory Concentration (MIC: µg/ml).
In test [12] the test system is K.pneumoniae No. 42. The description is as above. The following applies: Klebsiella pneumoniae, read-out: Minimum Inhibitory Concentration (MIC: µg/ml). The format is cell-based.
Test [13] has as its system K.pneumoniae PCI-602. The test is described as above. The following applies: Klebsiella pneumoniae, PCI602; K.pneumoniae PCI-602; Mueller Hinton agar, inoculum 10⁶ CFU/ml, 37°C, 16 hours; read-out: Minimum Inhibitory Concentration (MIC: µg/ml). The format is cell-based.
The test system of test [14] is M.luteus ATCC9341. The description is as above. The test is classed as cell-based. The following applies: Micrococcus luteus; M.luteus ATCC9341; Mueller Hinton agar, inoculum 10⁶ CFU/ml, 37°C, 16 hours; read-out: Minimum Inhibitory Concentration (MIC: µg/ml).
Test [15] relates to M.morganii GN5407. The description is as above. The test is classed as cell-based. The following applies: Morganella morganii; M.morganii GN5407 (β-Lactamase-producing strain); Mueller Hinton agar, inoculum 10⁶ CFU/ml, 37°C, 16 hours; read-out: Minimum Inhibitory Concentration (MIC: µg/ml).
Test [16] deals with P.vulgaris HX-19. Described as above. The format is cell-based. The following applies: Proteus vulgaris, HX19; P.vulgaris HX-19; Mueller Hinton agar, inoculum 10⁶ CFU/ml, 37°C, 16 hours; read-out: Minimum Inhibitory Concentration (MIC: µg/ml).
The test system of test [17] is P.vulgaris No. 33. The test is described as above. The test is classed as cell-based. The following applies: Proteus vulgaris; P.vulgaris No. 33 (β-Lactamase-producing strain); Mueller Hinton agar, inoculum 10⁶ CFU/ml, 37°C, 16 hours; read-out: Minimum Inhibitory Concentration (MIC: µg/ml).
Test [18] concerns Ps.aeruginosa AK 109. The description is as above. The test is classed as cell-based. The following applies: Pseudomonas aeruginosa, AK109; Ps.aeruginosa AK 109; Mueller Hinton agar, inoculum 10⁶ CFU/ml, 37°C, 16 hours; read-out: Minimum Inhibitory Concentration (MIC: µg/ml).
The test system of test [19] is Ps.aeruginosa AKR17. Described as above. The format is cell-based. The following applies: Pseudomonas aeruginosa; Ps.aeruginosa AKR17; Mueller Hinton agar, inoculum 10⁶ CFU/ml, 37°C, 16 hours; read-out: Minimum Inhibitory Concentration (MIC: µg/ml).
Test [20] has as its system Ps.aeruginosa IFO3445. The test is described as above. The format is cell-based. The following applies: Pseudomonas aeruginosa; Ps.aeruginosa IFO3445; Mueller Hinton agar, inoculum 10⁶ CFU/ml, 37°C, 16 hours; read-out: Minimum Inhibitory Concentration (MIC: µg/ml).
Test [21] relates to S.aureus 209P NIHJ-JC1. The description is as above. The test is classed as cell-based. The following applies: Staphylococcus aureus; S.aureus 209P NIHJ-JC1; Mueller Hinton agar, inoculum 10⁶ CFU/ml, 37°C, 16 hours; read-out: Minimum Inhibitory Concentration (MIC: µg/ml).
Test [22] relates to S.aureus BB5703. The test is described as above. The test is classed as cell-based. The following applies: Staphylococcus aureus; S.aureus BB5703; Mueller Hinton agar, inoculum 10⁶ CFU/ml, 37°C, 16 hours; read-out: Minimum Inhibitory Concentration (MIC: µg/ml).
For test [23], the system named is S.aureus JS1. The description is as above. The following applies: Staphylococcus aureus; S.aureus JS1 (β-Lactamase-producing strain); Mueller Hinton agar, inoculum 10⁶ CFU/ml, 37°C, 16 hours; read-out: Minimum Inhibitory Concentration (MIC: µg/ml). The format is cell-based.
The test system of test [24] is S.epidermidis IAM12012. The test is described as above. The test is classed as cell-based. The following applies: Staphylococcus epidermidis; S.epidermidis IAM12012; Mueller Hinton agar, inoculum 10⁶ CFU/ml, 37°C, 16 hours; read-out: Minimum Inhibitory Concentration (MIC: µg/ml).
For test [25], the system named is S.marcescens IAM 1184. Described as above. The format is cell-based. The following applies: Serratia marcescens, IAM1184; S.marcescens IAM 1184; Mueller Hinton agar, inoculum 10⁶ CFU/ml, 37°C, 16 hours; read-out: Minimum Inhibitory Concentration (MIC: µg/ml).
The subject of test [26] is S.marcescens No. 16-2. Described as above. The following applies: Serratia marcescens, NO.162; S.marcescens No. 16-2 (β-Lactamase-producing strain); Mueller Hinton agar, inoculum 10⁶ CFU/ml, 37°C, 16 hours; read-out: Minimum Inhibitory Concentration (MIC: µg/ml). The test is classed as cell-based.
Test [27] has as its system Ps.cepacia 23. The test is described as above. The test is classed as cell-based, Pseudomonas cepacia. The following applies: Burkholderia cepacia; Ps.cepacia 23; Mueller Hinton agar, inoculum 10⁶ CFU/ml, 37°C, 16 hours; read-out: Minimum Inhibitory Concentration (MIC: µg/ml).
In test [28] the test system is Ps.maltophilia GN 12873. Described as above. The following applies: Stenotrophomonas maltophilia, GN12873; Ps.maltophilia GN 12873 (β-Lactamase-producing strain); Mueller Hinton agar, inoculum 10⁶ CFU/ml, 37°C, 16 hours; read-out: Minimum Inhibitory Concentration (MIC: µg/ml). The format is cell-based, Pseudomonas maltophilia.

≈ marks a conversion by molar mass, not a printed value. Read-outs that look alike come from different tables or passages of the source.

On to `CO[C@@]1(NC(=O)Cc2cccs2)C(=O)N2C(C(=O)O)=C(COC(N)=O)CS[C@@H]21` [Cefoxitin, reference compound], for which the “Specific activity (unit/mg protein)” value in [1] was 0.238 unit/mg protein.
Consider `CO/N=C(\C(=O)NC1C(=O)N2C(C(=O)[O-])=C(C[n+]3ccc4cc(OC(C)=O)c(OC(C)=O)cc4c3)CSC12)c1csc(N)n1` (stereo not shown) [Ex. 8, 3-(6,7-diacetoxy-2-isoquinolino)methyl-7-[2-(2-aminothiazol-4-yl)-2-methoxyiminoacetamido]-3-cephem-4-carboxylate], for which the MIC in test [2] is 0.2 µg/mL (≈ 0.312 µM); in test [3] it was 0.78 µg/mL (≈ 1.22 µM); in test [4] it was 50 µg/mL (≈ 78 µM); in test [5], 0.025 µg/mL (≈ 0.039 µM); in [6], 0.2 µg/mL (≈ 0.312 µM); in test [7] it was 0.1 µg/mL (≈ 0.156 µM). For the same compound, the MIC in [8] is 0.0125 µg/mL (≈ 0.0195 µM); in test [9], 0.78 µg/mL (≈ 1.22 µM); in test [10], 0.1 µg/mL (≈ 0.156 µM); in test [11] it was 0.2 µg/mL (≈ 0.312 µM); in test [12] (NO.42, 16 h) it was 0.0125 µg/mL (≈ 0.0195 µM); in test [13], < 0.006 µg/mL. The MIC in [14] was 0.78 µg/mL (≈ 1.22 µM); in [15], 0.05 µg/mL (≈ 0.078 µM); in test [16], 0.025 µg/mL (≈ 0.039 µM); in test [17], 0.1 µg/mL (≈ 0.156 µM); in [18] it was 0.78 µg/mL (≈ 1.22 µM); in test [19] it was 100 µg/mL (≈ 156 µM). Moreover, the MIC in [20] was determined as 0.78 µg/mL (≈ 1.22 µM); in test [21], 6.25 µg/mL (≈ 9.76 µM); in test [22], 12.5 µg/mL (≈ 19.5 µM); in [23], 50 µg/mL (≈ 78 µM); in [24] it was 3.12 µg/mL (≈ 4.87 µM); in test [25], 0.025 µg/mL (≈ 0.039 µM). Also, the MIC in test [26] is 1.56 µg/mL (≈ 2.44 µM); in [27], 0.2 µg/mL (≈ 0.312 µM); in [28], > 100 µg/mL.
On to `CC(C)(ON=C(C(=O)NC1C(=O)N2C(C(=O)[O-])=C(C[n+]3ccc4ccccc4c3)CSC12)c1csc(N)n1)C(=O)O` (stereo not drawn) [Reference Ex. 1, sodium 7-[2-(2-aminothiazol-4-yl)-2-(l-carboxylato-l-methylethoxyimino)acetamido]-3-(2-isoquinolinio)methyl-3-cephem-4-carboxylate, reference compound], for which the MIC was 25 µg/mL in test [2]; 0.2 µg/mL in test [3]; 50 µg/mL in test [4]; 0.2 µg/mL in test [5]; 1.56 µg/mL in test [6]; 0.1 µg/mL in [7]. Further, the MIC in test [8] turned out to be 0.05 µg/mL; in test [9], 0.78 µg/mL; in test [10], 0.2 µg/mL; in test [11] it was 0.2 µg/mL; in [12] (K.pneumoniae No. 42 (β-Lactamase-producing strain), Mueller Hinton agar, inoculum 10⁶ CFU/ml, 37°C, 16 hours) it was 0.39 µg/mL; in test [13] it was 0.0125 µg/mL. Further, the MIC was determined as 0.78 µg/mL in [14]; 0.05 µg/mL in [15]; 0.0125 µg/mL in test [16]; 0.1 µg/mL in [17]; 3.12 µg/mL in test [18]; 100 µg/mL in [19]. In addition, the MIC in test [20] came to 3.12 µg/mL; in test [21], 6.25 µg/mL; in test [22], 25 µg/mL; in test [23] it was 50 µg/mL; in test [24], 1.56 µg/mL; in test [25], 0.05 µg/mL. The MIC stood at 1.56 µg/mL in test [26], 6.25 µg/mL in test [27] and 12.5 µg/mL in test [28].
